{"source": "patent US20220096717A1", "about": "“AXITINIB-LOADED NANOFIBER MEMBRANE, PREPARATION METHOD FOR THE SAME, AND ITS USE OF ANTI-ADHESION AFTER A SURGERY” (SHANGHAI CHILDREN'S MEDICAL CENTER, SHANGHAI JIAO TONG …, priority 2020, published 2022)", "assay": "Solubility of Axitinib (FIG. 1)", "assay_type": "physicochemical", "details": "FIG. 1A", "description": "FIG. 1: pictures showing solubility of Axitinib. A is a picture in which Axitinib is dissolved in water and trifluoroethanol; B is a picture in which gelatin and polycaprolactone are dissolved in trifluoroethanol with and without the addition of Axitinib to the electrospinning solution.\nStirring the solution to forms a milky solution. When it stays for a long period of time, granular precipitation may occur. […] 0.25 g of gelatin and 0.25 g of polycaprolactone were dissolved in 5 ml of trifluoroethanol containing 20 μl of acetic acid to form a transparent solution, and 50 mg of Axitinib was added to form a light yellow transparent solution (B)."}
{"smiles": "CNC(=O)c1ccccc1Sc1ccc2c(/C=C/c3ccccn3)n[nH]c2c1", "note": "[Axitinib]", "values": [{"measurement": "solubility in trifluoroethanol (TFE)", "setting": "trifluoroethanol", "result": "quickly dissolved"}, {"measurement": "solubility in water", "setting": "water", "result": "poorly soluble"}]}
